According to ChEMBL document CHEMBL1139117, “Novel 4-(6,7-dimethoxy-1,2,3,4-tetrahydroisoquinolin-2-yl)methylbenzofuran derivatives as selective alpha(2C)-adrenergic receptor antagonists” (Bioorg Med Chem Lett, 2007):
pKi: −log10 of the molar value. Activity calls are given as the source filed them. No cut-off for these calls is given here.

Columns and labels:
[1] = target: T1, Alpha-2C adrenergic receptor (Homo sapiens) (UniProt P18825); experiment: Displacement of [3H]MK912 from adrenergic alpha-2C receptor in HepG2 cells at 0.1 uM; format: cell-based
T1 sequence (whole entry): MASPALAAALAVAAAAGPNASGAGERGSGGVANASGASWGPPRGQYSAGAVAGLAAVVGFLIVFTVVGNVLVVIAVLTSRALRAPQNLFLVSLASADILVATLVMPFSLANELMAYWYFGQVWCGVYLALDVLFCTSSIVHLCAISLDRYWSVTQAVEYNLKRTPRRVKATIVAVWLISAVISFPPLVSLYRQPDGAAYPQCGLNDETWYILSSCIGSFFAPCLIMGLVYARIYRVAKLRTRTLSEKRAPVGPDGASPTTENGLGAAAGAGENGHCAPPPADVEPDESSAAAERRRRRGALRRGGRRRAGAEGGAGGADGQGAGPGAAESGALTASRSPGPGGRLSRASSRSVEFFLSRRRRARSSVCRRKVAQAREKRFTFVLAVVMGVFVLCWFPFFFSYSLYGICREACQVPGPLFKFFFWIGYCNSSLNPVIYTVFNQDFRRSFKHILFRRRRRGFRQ

[2] = target: T2, Alpha-2A adrenergic receptor (Homo sapiens, UniProt P08913); experiment: Displacement of [3H]MK-912 from adrenergic alpha2A receptor in HT29 cells; format: cell-based, HT-29
T2 sequence (P08913 whole entry): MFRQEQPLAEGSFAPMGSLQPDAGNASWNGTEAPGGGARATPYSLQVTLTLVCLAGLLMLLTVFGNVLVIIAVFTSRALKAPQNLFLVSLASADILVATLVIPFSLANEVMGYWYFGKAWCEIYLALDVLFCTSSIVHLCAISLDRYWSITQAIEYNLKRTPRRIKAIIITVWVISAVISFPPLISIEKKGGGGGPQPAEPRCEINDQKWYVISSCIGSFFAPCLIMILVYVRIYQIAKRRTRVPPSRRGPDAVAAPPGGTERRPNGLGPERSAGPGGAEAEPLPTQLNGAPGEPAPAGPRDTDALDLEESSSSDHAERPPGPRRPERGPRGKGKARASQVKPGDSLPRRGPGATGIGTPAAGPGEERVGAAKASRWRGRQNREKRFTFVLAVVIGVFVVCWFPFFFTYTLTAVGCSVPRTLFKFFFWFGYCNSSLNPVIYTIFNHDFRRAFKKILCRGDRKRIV

[3] = target: T3, Alpha-2B adrenergic receptor (Homo sapiens, UniProt P18089); experiment: Displacement of [3H]MK912 from adrenergic alpha-2B receptor expressed in COS7 cells; format: cell-based, COS-7
T3 sequence (P18089 whole entry): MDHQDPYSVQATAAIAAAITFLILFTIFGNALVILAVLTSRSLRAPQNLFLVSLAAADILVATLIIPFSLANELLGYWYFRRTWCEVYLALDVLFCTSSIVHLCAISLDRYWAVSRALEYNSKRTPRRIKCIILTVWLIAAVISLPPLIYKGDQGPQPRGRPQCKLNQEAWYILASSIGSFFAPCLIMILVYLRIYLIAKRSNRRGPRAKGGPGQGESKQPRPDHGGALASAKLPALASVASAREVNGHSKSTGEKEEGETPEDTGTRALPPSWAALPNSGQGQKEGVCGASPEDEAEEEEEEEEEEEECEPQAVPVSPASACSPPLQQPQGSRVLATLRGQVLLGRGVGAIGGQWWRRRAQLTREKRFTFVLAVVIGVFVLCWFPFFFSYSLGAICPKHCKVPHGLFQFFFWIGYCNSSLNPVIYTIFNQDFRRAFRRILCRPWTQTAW

[4] = target: T4, Alpha-2C adrenergic receptor (Homo sapiens, UniProt P18825); experiment: Displacement of [3H]MK912 from adrenergic Alpha-2C receptor in HepG2 cells; format: cell-based
T4 sequence (P18825 whole entry): T1 sequence (whole entry)

[5] = target: T5, Alpha-2A adrenergic receptor (Homo sapiens) (UniProt P08913); experiment: Displacement of [3H]MK912 from adrenergic alpha2A receptor in HT29 cells at 0.1 uM; format: cell-based; conditions: HT-29
T5 sequence (whole entry): T2 sequence (P08913 whole entry)

[6] = target: T6, Alpha-2B adrenergic receptor (Homo sapiens) (UniProt P18089); experiment: Displacement of [3H]MK912 from adrenergic alpha-2B receptor expressed in COS7 cells at 0.1 uM; format: cell-based; conditions: COS-7
T6 sequence (whole entry): T3 sequence (P18089 whole entry)

Callithrix jacchus [7] = experiment: Activity against […] induced dyskinetic activity in marmoset at 2.5 mg/kg, po; format: functional, organism-based; design: dose 2.5 mg/kg
[8] = AUC in mormoset at 2.5 mg/kg; format: ADME, organism-based, Callithrix jacchus; design: dose 2.5 mg/kg; conditions: marmoset, plasma
Callithrix jacchus [9] = experiment: Activity against […] induced dyskinetic activity in marmoset at 30 mg/kg, po; format: functional, organism-based; design: dose 30 mg/kg

Row | Compound | inhibition [1] [%] | pKi [2] | pKi [3] | pKi [4] | further results
1 | COc1cc2c(cc1OC)CN(Cc1ccc(OC)c3oc(C(=O)NCCO)cc13)CC2 | 6 | – | – | – | –
2 | COc1cc2c(cc1OC)CN(Cc1ccc(OC)c3oc(C(=O)NCC(C)(C)N)cc13)CC2 | – | 6.85 | 5.81 | 8.38 | –
3 | COc1cc2c(cc1OC)CN(Cc1ccc(OC)c3oc(-c4ccccc4C(F)(F)F)cc13)CC2 | – | 6.52 | 6.02 | 7.74 | –
4 | COc1ccc(CN2CCc3ccccc3C2)c2cc(C(=O)NCCN(C)C)oc12 | 94 | – | – | – | inhibition [5]: 88%; inhibition [6]: 51%
5 | COc1ccc(CN2CCN(c3ccccc3)CC2)c2cc(C(=O)NCCN(C)C)oc12 | 68 | – | – | – | inhibition [5]: 80%; inhibition [6]: 33%
6 | COc1cc2c(cc1OC)CN(Cc1ccc(OC)c3oc(-c4ccccc4)cc13)CC2 | – | 5.76 | 6.12 | 7.70 | Activity (Callithrix jacchus [7]): Active; AUC [8]: 11 ng·h/mL
7 | COc1cc2c(cc1OC)CN(Cc1ccc(OC)c3oc(C(=O)NC4CN5CCC4CC5)cc13)CC2 (stereo not given) | – | 7.38 | 6.07 | 9.10 | –
8 | COc1cc2c(cc1OC)CN(Cc1ccc(OC)c3oc(-c4cccc(F)c4)cc13)CC2 | 52 | – | – | – | inhibition [5]: 3%; inhibition [6]: 13%
9 | COc1cc2c(cc1OC)CN(Cc1cnc(N)n3nc(-c4ccco4)nc13)CC2 | – | 6.40 | 6.43 | 7.72 | –
10 | COc1cc2c(cc1OC)CN(Cc1ccc(OC)c3oc(-c4cccnc4)cc13)CC2 | 62 | – | – | – | –
11 | COc1cc2c(cc1OC)CN(Cc1ccc(OC)c3oc(C(=O)NCCNC(C)=O)cc13)CC2 | 9 | – | – | – | –
12 | COc1cc2c(cc1OC)CN(Cc1ccc(OC)c3oc(C(=O)NCCN(C)C)cc13)CC2 | – | 6.34 | 5.68 | 8.03 | Activity (Callithrix jacchus [9]): inactive; AUC [8]: 144 ng·h/mL
13 | COc1cc2c(cc1OC)CN(Cc1ccc(OC)c3oc(-c4ccc(F)cc4)cc13)CC2 | 41 | – | – | – | –
14 | COc1cc2c(cc1OC)CN(Cc1ccc(OC)c3oc(-c4ccco4)cc13)CC2 | – | 6.69 | 6.80 | 8.10 | –
15 | COc1cc2c(cc1OC)CN(Cc1ccc(OC)c3oc(C(=O)N4CCC(N5CCCC5)CC4)cc13)CC2 | – | 6.73 | 5.87 | 8.46 | –
16 | COc1ccc(CN2CCN(c3ccccc3)CC2)c2cc(-c3ccccc3)oc12 | 29 | – | – | – | –
17 | COc1cc2c(cc1OC)CN(Cc1cc(OC)c3oc(-c4ccccc4)cc3c1)CC2 | 19 | – | – | – | –

Row | Compound | inhibition [1] [%] | pKi [2] | pKi [3] | pKi [4] | further results
18 | CCCNC(=O)c1cc2c(CN3CCc4cc(OC)c(OC)cc4C3)ccc(OC)c2o1 | 20 | – | – | – | –
19 | COc1ccc(CN2CCc3ccccc3C2)c2cc(-c3ccccc3)oc12 | 54 | – | – | – | inhibition [5]: 30%; inhibition [6]: 51%
20 | COc1cc2c(cc1OC)CN(Cc1ccc3cc(C(=O)NCCN(C)C)oc3c1OC)CC2 | 65 | – | – | – | inhibition [5]: 20%; inhibition [6]: 15%
21 | COc1cc2c(cc1OC)CN(Cc1ccc(OC)c3oc(-c4ccccn4)cc13)CC2 | – | 6.87 | 6.48 | 8.02 | –
22 | CCCNC(=O)c1cccc(-c2cc3c(CN4CCc5cc(OC)c(OC)cc5C4)ccc(OC)c3o2)c1 | 48 | – | – | – | –
23 | COc1cc2c(cc1OC)CN(Cc1cc(OC)c3oc(C(=O)NCCN(C)C)cc3c1)CC2 | 41 | – | – | – | –
24 | COc1cc2c(cc1OC)CN(Cc1ccc3cc(-c4ccccc4)oc3c1OC)CC2 | 39 | – | – | – | –
25 | COc1cc2c(cc1OC)CN(Cc1ccc(OC)c3oc(-c4ccccc4F)cc13)CC2 | – | 6.07 | 6.52 | 7.96 | –
26 | COc1cc2c(cc1OC)CN(Cc1ccc(OC)c3oc(-c4ccncc4)cc13)CC2 | 35 | – | – | – | –
27 | COc1ccc(-c2cc3c(CN4CCc5cc(OC)c(OC)cc5C4)ccc(OC)c3o2)cc1 | 56 | – | – | – | –
28 | COc1cc2c(cc1OC)CN(Cc1ccc(OC)c3oc(-c4cccc(C(=O)NCCN(C)C)c4)cc13)CC2 | – | 6.67 | 6.23 | 8.03 | –
29 | COc1cc2c(cc1OC)CN(Cc1ccc(OC)c3oc(-c4cccc(C#N)c4)cc13)CC2 | 42 | – | – | – | –
30 | COc1cc2c(cc1OC)CN(Cc1ccc(OC)c3oc(-c4ccccc4OC)cc13)CC2 | 35 | – | – | – | inhibition [5]: 11%; inhibition [6]: 20%
31 | COc1cccc(-c2cc3c(CN4CCc5cc(OC)c(OC)cc5C4)ccc(OC)c3o2)c1 | – | 5.59 | 6.09 | 7.72 | –
32 | COc1cc2c(cc1OC)CN(Cc1ccc(OC)c3oc(-c4ccc(C(F)(F)F)cc4)cc13)CC2 | 18 | – | – | – | –
33 | COc1cc2c(cc1OC)CN(Cc1ccc(OC)c3oc(-c4cccc(C(=O)NCCO)c4)cc13)CC2 | 54 | – | – | – | inhibition [5]: 29%; inhibition [6]: 31%
